Our source for the IC50 values is ChEMBL document CHEMBL1141638, “Influence of sulfur oxidation state and steric bulk upon trifluoromethyl ketone (TFK) binding kinetics to carboxylesterases and fatty acid amide hydrolase (FAAH)” (Bioorg Med Chem, 2008).

Assay [1] addresses T1, Fatty-acid amide hydrolase 1 (Homo sapiens, UniProt O00519).
T1 sequence (O00519 whole entry): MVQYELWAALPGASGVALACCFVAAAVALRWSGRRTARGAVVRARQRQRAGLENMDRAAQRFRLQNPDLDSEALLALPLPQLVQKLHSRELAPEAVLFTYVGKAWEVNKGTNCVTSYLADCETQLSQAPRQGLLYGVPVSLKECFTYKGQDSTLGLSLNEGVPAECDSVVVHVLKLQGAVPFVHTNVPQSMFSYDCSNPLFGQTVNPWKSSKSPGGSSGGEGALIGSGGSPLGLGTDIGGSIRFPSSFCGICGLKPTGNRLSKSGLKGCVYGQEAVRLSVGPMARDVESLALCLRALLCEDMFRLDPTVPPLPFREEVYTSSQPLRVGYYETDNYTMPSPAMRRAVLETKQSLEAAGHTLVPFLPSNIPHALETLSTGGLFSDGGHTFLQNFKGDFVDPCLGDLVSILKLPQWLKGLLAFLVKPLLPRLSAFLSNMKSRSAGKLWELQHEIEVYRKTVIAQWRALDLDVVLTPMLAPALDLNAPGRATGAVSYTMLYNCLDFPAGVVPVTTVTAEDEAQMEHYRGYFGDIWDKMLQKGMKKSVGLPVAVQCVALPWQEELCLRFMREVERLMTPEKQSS
In words: Inhibition of human recombinant FAAH after 5 mins.

In assay [2] the target is T1, Fatty-acid amide hydrolase 1. In words: Inhibition of human recombinant FAAH after 15 mins.
In assay [3] the target is T2, Liver carboxylesterase (Sus scrofa, UniProt Q29550).
T2 sequence (Q29550 whole entry): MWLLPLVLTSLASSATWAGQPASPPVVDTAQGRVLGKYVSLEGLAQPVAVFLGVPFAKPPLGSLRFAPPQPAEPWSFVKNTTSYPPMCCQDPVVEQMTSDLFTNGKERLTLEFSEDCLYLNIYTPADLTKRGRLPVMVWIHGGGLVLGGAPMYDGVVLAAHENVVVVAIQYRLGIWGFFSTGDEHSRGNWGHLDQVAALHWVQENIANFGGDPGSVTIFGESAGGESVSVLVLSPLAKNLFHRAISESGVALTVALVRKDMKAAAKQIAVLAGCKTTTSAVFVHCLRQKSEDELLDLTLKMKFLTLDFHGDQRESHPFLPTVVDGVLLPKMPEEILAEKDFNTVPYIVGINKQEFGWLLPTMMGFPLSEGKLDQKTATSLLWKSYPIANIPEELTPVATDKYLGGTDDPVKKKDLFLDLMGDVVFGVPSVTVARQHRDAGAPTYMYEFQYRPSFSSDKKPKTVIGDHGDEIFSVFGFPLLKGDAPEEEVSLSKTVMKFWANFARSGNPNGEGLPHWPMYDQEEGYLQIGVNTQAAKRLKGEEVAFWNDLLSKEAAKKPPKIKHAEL
Description: Inhibition of pig liver carboxylesterase after 5 mins.

Assay [4] concerns the target T2, Liver carboxylesterase. Description: Inhibition of pig liver carboxylesterase after 15 mins.
In assay [5] the target is T3, Liver carboxylesterase 1 (Homo sapiens, UniProt P23141).
T3 sequence (P23141 whole entry): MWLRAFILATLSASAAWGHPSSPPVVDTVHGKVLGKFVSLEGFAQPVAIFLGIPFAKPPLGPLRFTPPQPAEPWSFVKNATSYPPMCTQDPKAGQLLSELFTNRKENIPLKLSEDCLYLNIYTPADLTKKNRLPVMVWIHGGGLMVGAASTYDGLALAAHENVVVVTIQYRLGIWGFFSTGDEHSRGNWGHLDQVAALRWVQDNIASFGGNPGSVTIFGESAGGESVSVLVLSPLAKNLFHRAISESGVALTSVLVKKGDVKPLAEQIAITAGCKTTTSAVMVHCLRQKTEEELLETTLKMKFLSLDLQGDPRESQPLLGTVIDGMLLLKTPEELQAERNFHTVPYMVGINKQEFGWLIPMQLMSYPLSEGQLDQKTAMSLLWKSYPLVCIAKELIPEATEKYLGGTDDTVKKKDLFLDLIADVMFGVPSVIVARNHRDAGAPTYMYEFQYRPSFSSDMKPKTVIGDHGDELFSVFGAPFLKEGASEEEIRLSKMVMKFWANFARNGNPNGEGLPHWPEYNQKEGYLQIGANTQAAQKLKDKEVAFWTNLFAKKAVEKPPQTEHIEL
In words: Inhibition of human recombinant carboxylesterase 1 after 15 mins.

Assay [6] is described as follows: Inhibition of rabbit liver carboxylesterase after 5 mins. On the set-up: species or system Oryctolagus cuniculus.
Assay [7] in a line: Inhibition of rabbit liver carboxylesterase after 15 mins. On the set-up: species or system Oryctolagus cuniculus.
Assay [8] addresses T3, Liver carboxylesterase 1. In words: Inhibition of human recombinant carboxylesterase 1 after 5 mins.
Assay [9] deals with T4, Juvenile hormone esterase (Manduca sexta, UniProt Q9GPG0).
T4 sequence (Q9GPG0 whole entry): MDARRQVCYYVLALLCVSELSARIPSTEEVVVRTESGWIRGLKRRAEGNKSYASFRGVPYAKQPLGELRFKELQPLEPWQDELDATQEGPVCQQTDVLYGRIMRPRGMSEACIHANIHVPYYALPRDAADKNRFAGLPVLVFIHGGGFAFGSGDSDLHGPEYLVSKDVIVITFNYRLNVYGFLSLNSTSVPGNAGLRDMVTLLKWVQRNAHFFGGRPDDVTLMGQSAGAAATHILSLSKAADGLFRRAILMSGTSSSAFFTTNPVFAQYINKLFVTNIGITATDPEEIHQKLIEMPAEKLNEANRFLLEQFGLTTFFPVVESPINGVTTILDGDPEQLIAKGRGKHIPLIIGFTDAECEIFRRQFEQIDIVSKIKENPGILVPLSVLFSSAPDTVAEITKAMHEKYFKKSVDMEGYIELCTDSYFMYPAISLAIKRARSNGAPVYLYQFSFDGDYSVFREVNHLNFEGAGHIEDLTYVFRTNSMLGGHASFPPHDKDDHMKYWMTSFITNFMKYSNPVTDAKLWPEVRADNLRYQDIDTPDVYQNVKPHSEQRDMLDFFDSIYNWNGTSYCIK
Description: Inhibition of Manduca sexta juvenile hormone esterase.

Assay [10] in a line: Inhibition of Manduca sexta juvenile hormone esterase […] mutant.

Usually IC50 stands for the concentration at which inhibition is half-maximal. On to `CCCCCC[S+]([O-])CC(=O)C(F)(F)F` (stereo unspecified), for which the IC50 in assay [1] was over 40000 nM; in [2], over 40000 nM; against Liver carboxylesterase [3] it was 280 nM; at Liver carboxylesterase [4] it was 33 nM.
Regarding `CCCCCCS(=O)(=O)CC(=O)C(F)(F)F`, the IC50 was over 40000 nM in assay [1], over 40000 nM in [2], 470 nM on Liver carboxylesterase [3] and 100 nM against Liver carboxylesterase [4].
As for `CCCCCCCCCCCCS(=O)(=O)CC(=O)C(F)(F)F`, the IC50 turned out to be 250 nM in assay [1], 280 nM in assay [2], 37 nM on Liver carboxylesterase [3] and 46 nM against Liver carboxylesterase [4].
The matching figures for `CCCCCCCCCC[S+]([O-])CC(=O)C(F)(F)F` (stereo unspecified): 760 nM, 1350 nM, 5.5 nM and 3.2 nM.
Take `CCCCCCCC[S+]([O-])CC(=O)C(F)(F)F` (stereo unspecified): the IC50 at Liver carboxylesterase 1 [5] is 5.5 nM; in assay [6], 16 nM; in assay [7], 5 nM; in assay [1] it was 6500 nM; in [2], 13900 nM; on Liver carboxylesterase [3], 200 nM. The IC50 on Liver carboxylesterase [4] came to 23 nM; on Liver carboxylesterase 1 [8] it was 30 nM.
`CCCCCCCCCCSCC(=O)C(F)(F)F`: the IC50 amounted to 120 nM in assay [1], 170 nM in assay [2], 2.2 nM against Liver carboxylesterase [3] and 1.3 nM at Liver carboxylesterase [4].
The matching figures for `CCCCCCCCCCCCSCC(=O)C(F)(F)F`: 84 nM, 89 nM, 12 nM and 5.3 nM.
For the compound `CCCCCCCCCCS(=O)(=O)CC(=O)C(F)(F)F`, the IC50 was 2200 nM in [1], 3000 nM in [2], 63 nM against Liver carboxylesterase [3] and 28 nM against Liver carboxylesterase [4].
Take `CCCCCCCCCCCC[S+]([O-])CC(=O)C(F)(F)F` (stereo unspecified): the IC50 in assay [1] came out at 440 nM; in [2], 600 nM; on Liver carboxylesterase [3] it was 12 nM; against Liver carboxylesterase [4], 8.6 nM.
Turning to `CCCCCCCCS(=O)(=O)CC(=O)C(F)(F)F`, the IC50 on Liver carboxylesterase 1 [5] is 5.4 nM; in [6] it was 55 nM; in assay [7], 35 nM; in assay [1] it was 14800 nM; in assay [2] it was 22500 nM; against Liver carboxylesterase [3], 830 nM. The IC50 was determined as 460 nM against Liver carboxylesterase [4] and 18 nM at Liver carboxylesterase 1 [8].
For `CCCCSCC(=O)C(F)(F)F`, the IC50 in assay [1] is over 40000 nM; in assay [2], over 40000 nM; at Liver carboxylesterase [3] it was 20 nM; on Liver carboxylesterase [4] it was 4.5 nM.
For `CCCC[S+]([O-])CC(=O)C(F)(F)F` (stereo unspecified), the IC50 was over 40000 nM in [1], over 40000 nM in assay [2], 970 nM against Liver carboxylesterase [3] and 270 nM against Liver carboxylesterase [4].
In the case of `CCCCCCSCC(=O)C(F)(F)F`, the IC50 came to 1950 nM in assay [1], 2500 nM in assay [2], 7.5 nM at Liver carboxylesterase [3] and 1.8 nM on Liver carboxylesterase [4].
Turning to `CCCCCCCCCCC(=O)C(F)(F)F`, the IC50 worked out at 30 nM on Liver carboxylesterase 1 [5]; 42 nM in assay [6]; 14 nM in [7]; 530 nM in assay [9]; 1600 nM in [10]; 1250 nM in assay [1]. Further, the IC50 came to 1800 nM in assay [2], 25 nM against Liver carboxylesterase [3], 9.3 nM at Liver carboxylesterase [4] and 65 nM at Liver carboxylesterase 1 [8].
As for `CCCCCCCCSCC(=O)C(F)(F)F`, the IC50 at Liver carboxylesterase 1 [5] was 13 nM; in [6], 6.7 nM; in assay [7], 1.9 nM; in assay [9], 22 nM; in assay [10], 330 nM; in assay [1], 230 nM. Also, the IC50 turned out to be 300 nM in [2], 5.6 nM at Liver carboxylesterase [3], 2.4 nM on Liver carboxylesterase [4] and 24 nM on Liver carboxylesterase 1 [8].
On to `O=C(C(=O)c1ccccc1)c1ccccc1` [BENZIL], for which the IC50 in assay [6] was 19 nM; in assay [7], 29 nM; in assay [1] it was over 40000 nM; in assay [2], over 40000 nM; against Liver carboxylesterase [3], 370 nM; at Liver carboxylesterase [4] it was 830 nM.
